# Assay results as given in patent US20220288058A1, “COMBINATION THERAPY USING A MALT1 INHIBITOR AND A BTK INHIBITOR” (Janssen Pharmaceutica NV, priority 2021, published 2022).
# pIC50: −log10 of the molar value.
# Assays:
# [1] = tested on: OCI-Ly10; assay: Proliferation of ABC-DLBCL cell lines (IC50); assay type: cell-based; details: Homo sapiens, OCI-Ly10; read-out: IC50, inhibition of proliferation
# [2] = target: T1, BTK protein (Homo sapiens, UniProt Q06187); assay: Study 1: BTK occupancy assay (ELISA) in OCI-LY10 DLBCL tumor lysates of NSG mice; assay type: in vivo, mouse
# T1 construct: measuring the amount of free BTK protein in OCI-LY10 DLBCL tumor lysates of mice treated with various dosing concentrations of Compound B; endogenous in cells; host or cells: OCI-LY10 ABC-DLBCL xenograft tumours grown SC in female NSG mice (tumour lysates)
# T1 sequence (Q06187 whole entry): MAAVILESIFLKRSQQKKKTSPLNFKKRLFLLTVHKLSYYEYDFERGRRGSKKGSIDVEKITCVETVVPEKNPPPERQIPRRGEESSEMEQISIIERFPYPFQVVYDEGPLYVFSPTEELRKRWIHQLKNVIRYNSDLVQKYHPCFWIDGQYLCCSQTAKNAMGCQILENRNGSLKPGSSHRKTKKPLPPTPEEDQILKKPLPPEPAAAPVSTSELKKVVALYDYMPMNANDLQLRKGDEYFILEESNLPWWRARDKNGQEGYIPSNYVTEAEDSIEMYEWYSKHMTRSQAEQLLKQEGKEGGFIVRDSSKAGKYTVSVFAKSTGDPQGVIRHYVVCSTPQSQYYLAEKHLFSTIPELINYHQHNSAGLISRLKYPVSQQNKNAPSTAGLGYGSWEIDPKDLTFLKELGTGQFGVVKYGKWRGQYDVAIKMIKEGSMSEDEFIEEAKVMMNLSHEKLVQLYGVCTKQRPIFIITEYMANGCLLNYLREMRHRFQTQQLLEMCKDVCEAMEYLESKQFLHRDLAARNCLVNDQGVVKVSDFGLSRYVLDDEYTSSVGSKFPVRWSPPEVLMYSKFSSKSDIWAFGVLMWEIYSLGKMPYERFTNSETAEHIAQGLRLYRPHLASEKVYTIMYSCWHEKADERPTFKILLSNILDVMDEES
# Description: In Study 1, 5×10^6 OCI-LY10 cells in PBS containing 50% Matrigel™ were injected subcutaneously (SC) into the right hind flank of female NSG mice. Tumor growth was measured over time and once tumors reached volumes of approximately 525 mm^3, mice were randomized in groups of 15 and treated orally with a single dose of Compound B according to treatment schedule (see Table 4). Blood was collected serially by mandibular vein sampling from 5 animals per time point per group to determine circulating compound concentration and IL10 levels at 2, 4, 8, 12, 16, and 24 hours post single dose. Blood was harvested in EDTA and plasma was obtained via centrifugation at 3000 rpm for 10 minutes. In addition, tumor samples were harvested from 5 animals per timepoint per treatment group for BTK occupancy studies at 4, 12, and 24 hours post single dose.
# Compound B is a covalent orally bioavailable inhibitor binding BTK irreversibly, allowing us to evaluate the duration of signaling shutdown and occupancy of BTK protein after compound administration considering compound binding to BTK as well as synthesis rate of new BTK protein. Target engagement was determined by measuring the amount of free BTK protein in OCI-LY10 DLBCL tumor lysates of mice treated with various dosing concentrations of Compound B using a BTK occupancy assay (ELISA assay format). A covalent BTK inhibitor probe, chemically linked to biotin (CNX-500 Probe), was incubated in PBS/BT (PBS+1% BSA+0.05% tween-20) with tumor lysate for 1 hour at 28° C. Incubated BTK standards and samples were transferred to a streptavidin-coated 96-well plates and mixed while shaking for 30 minutes at RT. The BTK-antibody was then added and incubated overnight at 4° C. After washing, goat anti-mouse-HRP was added and incubated for 1 hour at RT. The ELISA was developed with addition of tetramethyl benzidine (TMB) followed by sulfuric acid (stop solution) and read at optical density 450 nm on Envision device.
# [3] = tested on: OCI-LY10 human DLBCL xenografts; assay: Study 4: combination efficacy (Compound B BID + Compound A BID), OCI-LY10 xenografts in NSG mice; assay type: in vivo, mouse
# Description: Following early animal dropouts in Study 2 due to tumor progression (metastasis and hindlimb paralysis), NSG female mice in Study 3 and Study 4 were injected SC into the right flank with a lower cell number (1×10^6 OCI-LY10 cells) in PBS containing 50% Matrigel™. On day 35 (Study 3) or day 32 (Study 4), mice were randomized based on tumor volume (see Table 4) and dosed orally QD day with Compound B and BID with Compound A (Study 3) or BID for both compounds (Study 4) with various dose concentrations according to treatment schedule above (see Table 4) for a period of 21 days.
# Tumor volume in SC models was calculated using the formula: tumor volume (mm^3)=(D×d^2/2); where “D” represents the larger diameter and “d” the smaller diameter of the tumor as determined by calliper measurements. Tumor volume data was graphed as the mean tumor volume f SEM.
# The percent ΔTGI was defined as the difference between mean tumor burden of the treatment and control groups, calculated using the following formula: ([(TVc−TVc0)−(TVt−TVt0)]/(TVc−TVc0))×100, where “TVc” is the mean tumor burden of a given control group, “TVc0” is the mean initial tumor burden of a given control group, “TVt” is the mean tumor burden of the treatment group, and “TVt0” is the mean initial tumor burden of the treatment group. The percent tumor growth inhibition (TGI) was defined as the difference between mean tumor volumes of the treated and control groups, calculated as: ((TVc−TVt)/TVc)×100 where “TVc” is the mean tumor volume of the control group and “TVt” is the mean tumor volume of the treatment group. […]
# Tumor regression was calculated when mean tumor burden in treated group was smaller than the tumor burden at start of treatment of the same treated group. The % Tumor Regression (TR), quantified to reflect the treatment-related reduction of tumor volume as compared to baseline independent of the control group, was calculated using the following formula: % TR=(1-mean (TVti/TVt0i))×100 where “TVti” is the tumor burden of individual animals in a treatment group, and “TVt0i” is the initial tumor burden of the animal. […]
# [4] = Study 4, day 52, Compound B 15 mg/kg BID
compound,measurement,setting,value
"C=CC(=O)N[C@H]1CCC[C@H]1NC(=O)c1sc2nccc3c2c1NC(=O)N3c1cnc(CC(C)C)cc1C (atropisomer, axis not shown) [Compound B, N-((1R,2S)-2-acrylamidocyclopentyl)-5-(S)-(6-isobutyl-4-methylpyridin-3-yl)-4-oxo-4,5-dihydro-3H-1-thia-3,5,8-triazaacenaphthylene-2-carboxamide]",pIC50,[1],7.74
same,BTK occupancy in tumor lysates,[2]; 1 mg/kg single dose,No BTK occupancy
same,BTK occupancy in tumor lysates,[2]; 3 mg/kg single dose,No BTK occupancy
same,decrease in unoccupied (free) BTK in tumors,"[2]; Compound B at 1, 3, 10, 30, or 100 mg/kg single dose, maximal at ≥ 30 mg/kg, sustained through 24 hours",Dose-and time-dependent
same,receptor occupancy at 10 mg/kg,"[2]; OCI-Ly10, 4 hours after dosing",54%
same,receptor occupancy at 30 mg/kg,"[2]; OCI-Ly10, 4 hours after dosing",90%
same,receptor occupancy at 100 mg/kg,"[2]; OCI-Ly10, 4 hours after dosing",95%
same,receptor occupancy at 10 mg/kg,"[2]; OCI-Ly10, 12 hours",71%
same,receptor occupancy at 30 mg/kg,"[2]; OCI-Ly10, 12 hours",94%
same,receptor occupancy at 100 mg/kg,"[2]; OCI-Ly10, 12 hours",96%
same,receptor occupancy at 10 mg/kg,"[2]; OCI-Ly10, 24 hours",70%
same,receptor occupancy at 30 mg/kg,"[2]; OCI-Ly10, 24 hours",91%
same,receptor occupancy at 100 mg/kg,"[2]; OCI-Ly10, 24 hours",85%
same,BTK occupancy in tumors,"[2]; single dose as low as 30 mg/kg, effects lasting up to 24 hours",complete BTK occupancy
same,TGI,[3]; [4],49%
same,ΔTGI,[3]; [4],56%
same,TR (tumor regression),"[3]; Study 4, Compound B 50 mg/kg BID monotherapy",8%
